Like-named read-outs stand apart in the source and are kept apart here.
Experiments:
Mpro of SARS-CoV-2 = details: in vitro analysis; ref Zhu and Xie, 2020; cited from earlier work
[1] = system: SARS-CoV-2 wild-type Spike Vpps; set-up: EC50 (inhibition of SARS-CoV-2 Vpp infection by 50%): unit not given beside the values
[2] = Cytotoxicity assay (MTT), VeroE6; format: cell-based; details: African green monkey, tested concentrations given in μg/ml, read-out: CC50 (median cytotoxic concentration)
Description: (§1) The human embryonic kidney cells 293T stably expressing recombinant human ACE2 (293T-ACE2) were maintained in DMEM containing 10% FBS, 1% P/S, and […] hygromycin. The NCI-H460 cell line (human non-small cell lung cancer cells) was preserved in Modified Eagle’s Medium (MEM, Gibco, USA) supplemented with 10% FBS and 1% P/S. The VeroE6 cell line (African green monkey kidney cells) was grown in Dulbecco’s Modified Eagle’s Medium (DMEM, Gibco) supplemented with 10% fetal bovine serum (FBS, Gibco), 1× GlutaMAX (Gibco), and 1% penicillin/streptomycin (P/S, Hyclone, USA). All these cells were cultured at 37°C and 5% CO2. All cell lines are checked annually for mycoplasma contamination, and human cell lines were authenticated through STR profiling.
(§2) […]. The medium was removed, and viable cells were detected with MTT assay (Cyrusbioscience, Taiwan), which was read by absorbance at 570 nm by an ELISA reader. All experiments were performed independently in triplicates and repeated three times.

human TMPRSS2 = target: T1, human TMPRSS2 (Homo sapiens, UniProt O15393); assay: Cell-based TMPRSS2 enzyme activity assay (293T-TMPRSS2 cells, Boc-QAR-AMC)
T1 construct: Flag; host or cells: 293T

[3] = system: SARS-CoV-2 wild-type Spike Vpps; assay: microbe, parasite or virus in culture; details: Severe acute respiratory syndrome coronavirus 2, VeroE6/TMPRSS2, read-out: EC50 (inhibition of SARS-CoV-2 Vpp infection by 50%)
[4] = system: SARS-CoV-2 wild-type Spike Vpps; assay: microbe, parasite or virus in culture; details: Severe acute respiratory syndrome coronavirus 2, Vero C1008, read-out: EC50 (inhibition of SARS-CoV-2 Vpp infection by 50%)
[5] = system: wild-type SARS-CoV-2 Spike Vpps; assay: microbe, parasite or virus in culture; details: Severe acute respiratory syndrome coronavirus 2, NCI-H460, read-out: EC50 (inhibition of SARS-CoV-2 Vpp infection by 50%)
[6] = Cytotoxicity assay (MTT), 293T-ACE2; format: cell-based; details: human, tested concentrations given in μg/ml, read-out: CC50 (median cytotoxic concentration)
Description: as §1, §2

[7] = target: SARS-CoV-2 Spike RBD / human ACE2 interaction (UniProt P0DTC2+Q9BYF1); assay: Spike protein–ACE2 interaction ELISA assay; format: binding, SARS-CoV-2; human; details: doses 0, 50, 100 μg/ml (method b11 says μM), Figure 1A
SARS-CoV-2 Mpro = target: T2, SARS-CoV-2 Mpro (Severe acute respiratory syndrome coronavirus 2, UniProt P0DTD1); format: biochemical
T2 construct: the main protease (M^pro/3CL^pro), a chymotrypsin-like protease

[8] = system: wild-type SARS-CoV-2 Spike Vpps; assay: microbe, parasite or virus in culture; details: Severe acute respiratory syndrome coronavirus 2, 293T/ACE2, read-out: EC50 (inhibition of SARS-CoV-2 Vpp infection by 50%)
[9] = Cytotoxicity assay (MTT), NCI-H460; format: cell-based; details: human, tested concentrations given in μg/ml, read-out: CC50 (median cytotoxic concentration)
Description: as §1, §2

T1 sequence (O15393 whole entry): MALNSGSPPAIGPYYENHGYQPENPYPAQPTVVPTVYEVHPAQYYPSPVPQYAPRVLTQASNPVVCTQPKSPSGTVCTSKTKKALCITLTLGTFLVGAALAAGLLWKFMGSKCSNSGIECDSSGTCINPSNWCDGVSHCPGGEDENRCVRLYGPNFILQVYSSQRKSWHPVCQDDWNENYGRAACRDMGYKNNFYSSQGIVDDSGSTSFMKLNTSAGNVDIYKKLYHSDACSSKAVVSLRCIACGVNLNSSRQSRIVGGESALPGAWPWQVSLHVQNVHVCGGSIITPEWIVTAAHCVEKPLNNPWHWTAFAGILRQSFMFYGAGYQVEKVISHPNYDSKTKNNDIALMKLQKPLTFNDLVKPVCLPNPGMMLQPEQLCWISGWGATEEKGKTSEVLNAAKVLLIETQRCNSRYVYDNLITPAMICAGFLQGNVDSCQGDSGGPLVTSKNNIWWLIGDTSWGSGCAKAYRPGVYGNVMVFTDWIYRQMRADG

**Q.** With `Oc1cc(O)c2c(c1)O[C@H](c1ccc(O)c(O)c1)[C@H](O)[C@H]2c1c(O)cc(O)c2c1O[C@H](c1ccc(O)c(O)c1)[C@H](O)C2` [PB2, procyanidin B2] as the compound, how does the IC50 (Mpro of SARS-CoV-2) read?
**A.** 75.3 ± 1.29 µM

**Q.** Which results are given for `O=C1O[C@H]2[C@@H]3OC(=O)c4cc(O)c(O)c(O)c4-c4c(O)c(O)c5oc(=O)c6c(c(O)c(O)c7oc(=O)c4c5c76)-c4c(cc(O)c(O)c4O)C(=O)OC[C@H]3OC(O)[C@@H]2OC(=O)c2cc(O)c(O)c(O)c2-c2c1cc(O)c(O)c2O` (mixture of isomers) [Punicalagin, punicalagin]?
**A.** SI (ratio of CC50 to EC50) [1]: 15.49; CC50 at 24 h [2]: 84.7 ± 5.55 µg/mL; IC50 (human TMPRSS2): 31.9 µM; inhibitory activity on TMPRSS2 (human TMPRSS2; Figure 1C, in words): only moderate inhibitory activity; EC50 [3]: 5.8 ± 1.74 µg/mL; EC50 [4]: 5.47 ± 1.27 µg/mL; EC50 [5]: 4.65 ± 0.47 µg/mL; CC50 at 24 h [6]: 606 ± 61.1 µg/mL; inhibitory activity against the Spike protein–ACE2 interaction [7]: highest inhibitory activity; inhibition of Mpro enzymatic activity (SARS-CoV-2 Mpro): even stronger inhibitory activity on M^pro than tannic acid and OPCs; EC50 [8]: 3.7 ± 2.24 µg/mL; CC50 at 24 h [9]: 88.4 ± 6.76 µg/mL

**Q.** Which “EC50 (inhibition of SARS-CoV-2 Vpp infection by 50%)” value [1] does the source give for tannic acid [reference compound] here?
**A.** 6.91±0.63
